Results as given in PMC3479967 (Evidence-based Complementary and Alternative Medicine : eCAM, 2012).

Target: T1, UGT1A9 (Homo sapiens, UniProt O60656)
T1 sequence (O60656 26-530): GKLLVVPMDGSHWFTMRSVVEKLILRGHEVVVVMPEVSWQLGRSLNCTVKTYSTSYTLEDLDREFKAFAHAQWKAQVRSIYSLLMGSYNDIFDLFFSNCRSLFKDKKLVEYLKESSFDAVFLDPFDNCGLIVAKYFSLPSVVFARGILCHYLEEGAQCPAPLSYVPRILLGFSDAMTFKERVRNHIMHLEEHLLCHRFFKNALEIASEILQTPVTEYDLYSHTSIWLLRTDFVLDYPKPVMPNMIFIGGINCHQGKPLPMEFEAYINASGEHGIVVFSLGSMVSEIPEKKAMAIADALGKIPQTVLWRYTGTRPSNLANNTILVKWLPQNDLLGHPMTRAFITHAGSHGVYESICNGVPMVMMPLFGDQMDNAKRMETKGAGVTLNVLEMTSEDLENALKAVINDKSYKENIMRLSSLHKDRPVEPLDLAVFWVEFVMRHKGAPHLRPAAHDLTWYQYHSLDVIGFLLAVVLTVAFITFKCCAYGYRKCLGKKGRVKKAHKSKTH
Assay: Inhibition of recombinant UGT1A9 activity (4-MU glucuronidation)
Method: A panel of recombinant human UGT supersomes (UGT1A1, UGT1A3, UGT1A4, UGT1A6, UGT1A7, UGT1A8, UGT1A9, UGT1A10, UGT2B4, UGT2B7, UGT2B15, and UGT2B17) expressed in baculovirus-infected insect cells were purchased from BD Gentest Corp. (Woburn, MA, USA).
4-MU, a nonselective substrate of UGTs, was used as probe substrate for all UGTs except UGT1A4. Incubations with each individual enzyme were conducted using conditions previously described. There was a 5 min preincubation step at 37°C before the reaction was started by addition of UDPGA. The incubation mixtures were then centrifuged at 20,500 ×g for 15 min to obtain the supernatant. Aliquots (20 μL) were then analyzed by HPLC. The HPLC system (SHIMADZU, Kyoto, Japan) consisted of an SCL-10A system controller, two LC-10AT pumps, a SIL-10A auto injector, and a SPD-10AVP UV detector. Chromatographic separation was achieved using a Kromasil ODS column (4.6 × 150 mm I.D., 5 μm particle size) at a flow rate of 1 mL/min and UV detection at 316 nm. The mobile phase consisted of 10 mM KH2PO4, pH 2.7 (A) and acetonitrile (B). The following gradient was applied at a flow rate of 1 mL/min: 0–4 min 80% A and 20% B, 4.1–8 min 50% A and 50% B, 8.1–12 min, 30% A and 70% B. All experiments were performed in two independent experiments in duplicate.
A typical incubation mixture contained recombinant human UGTs, 5 mM MgCl2, 5 mM UDPGA, 50 μg/mg protein alamethicin, 50 mM Tris-HCl buffer (pH 7.4), and various probe substrates of UGTs in the absence or presence of different concentrations of inhibitors. […] The final concentration of DMSO in the incubation system was 1% (v/v). […]
Inhibition data from experiments were graphically represented by Dixon plots. K i values were calculated by nonlinear regression using the equations for competitive inhibition (1), noncompetitive inhibition (2), or mixed inhibition (3), [22] […] The type of inhibition was determined from the enzyme inhibition models. Goodness of fit to kinetic and inhibition models was assessed from the F statistic, r ^2 values, parameter standard error estimates, and 95% confidence intervals. […]

| IC50 [µM] | Compound |
| --- | --- |
| 1.5 ± 0.1 | COc1ccc(-c2oc3c(CC=C(C)C)c(O)cc(O)c3c(=O)c2O)cc1 [Icaritin] |
| > 100 | COc1ccc(-c2oc3c(CC=C(C)C)c(O[C@@H]4O[C@H](CO)[C@@H](O)[C@H](O)[C@H]4O)cc(O)c3c(=O)c2O)cc1 [Icariside I] |

| Compound | IC50 [µM] |
| --- | --- |
| COc1ccc(-c2oc3c(CC=C(C)C)c(O[C@@H]4O[C@H](CO)[C@@H](O)[C@H](O)[C@H]4O)cc(O)c3c(=O)c2O[C@@H]2O[C@@H](C)[C@H](O)[C@@H](O)[C@H]2O)cc1 [Icariin] | > 100 |
